Among the data in paper PMC6775455, “Chemoperception of Specific Amino Acids Controls Phytopathogenicity in Pseudomonas syringae pv. tomato” (mBio, 2019) are Kd values, retold here.

For the assay, the target named is T1, PsPto-PscA-LBD (Pseudomonas syringae group genomosp. 3, UniProt Q882Z2).
T1 construct: host E. coli BL21(DE3)
T1 sequence (Q882Z2 30-278): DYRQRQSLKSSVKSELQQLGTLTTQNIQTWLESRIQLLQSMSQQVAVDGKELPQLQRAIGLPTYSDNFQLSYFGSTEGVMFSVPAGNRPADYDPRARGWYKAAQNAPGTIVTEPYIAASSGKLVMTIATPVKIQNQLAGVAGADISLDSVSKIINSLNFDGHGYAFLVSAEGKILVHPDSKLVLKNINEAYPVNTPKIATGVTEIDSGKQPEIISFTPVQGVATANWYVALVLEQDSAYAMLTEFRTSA
Briefly: isothermal titration calorimetry. The format is binding. The conditions noted are these: read-out: Mean KD (μM) ± SEM. An excerpt:
isothermal titration calorimetry on PsPto-PscA-LBD
(Isothermal titration calorimetry measures the heat released or taken up as one component is titrated into another.)
As usually defined, the Kd is the constant that tells how readily two partners part at equilibrium. In the case of `N[C@@H](CC(=O)O)C(=O)O` [L-Asp], the Kd worked out at 1.2 ± 0.1 µM. Take `N[C@@H](CCC(=O)O)C(=O)O` [L-Glu]: the Kd turned out to be 3.4 ± 0.1 µM.

Turning to `N[C@H](CC(=O)O)C(=O)O` [D-Asp], the Kd turned out to be 1.2 ± 0.1 µM.
